Measured values taken from ChEMBL document CHEMBL3885861, “Open TG-GATES”.

Species on record: Rattus norvegicus
Assay: Open TG-GATES - Regimen: Daily Repeat
Assay type: toxicity, organism-based, Sprague-Dawley
Set-up: regimen Daily Repeat, gender Male, age 6 weeks
Conditions: in vivo, po, 6 mg/kg, route gavage, dose level Low; for APTT / Bas / Eos / Fbg / Hb / Ht / Lym / MCH / MCHC / MCV / Mono / Neu / PT / Plat / RBC / Ret / WBC: tissue Blood; for KIDNEY_L / KIDNEY_R / KIDNEY_TOTAL: tissue Kidney; for LIVER: tissue Liver; for A/G / ALP / ALT / AST / BUN / CRE / Ca / Cl / DBIL / GLC / IP / K / LDH / Na / PL / RALB / TBIL / TC / TG / TP / gamma-GTP: tissue Plasma

CC(C)NNC(=O)c1ccncc1 [IPRONIAZID]
TERMINAL_BW (72 h, time 3 day): 205.6 g
APTT (72 h, time 3 day): 20.8 s
Bas (72 h, time 3 day): 0%
Eos (72 h, time 3 day): 1%
Fbg (72 h, time 3 day): 309.2 mg/dL
Hb (72 h, time 3 day): 13.5 g/dL
Ht (72 h, time 3 day): 39.1%
Lym (72 h, time 3 day): 78.4%
MCH (72 h, time 3 day): 21.3 pg
MCHC (72 h, time 3 day): 34.4%
MCV (72 h, time 3 day): 61.9 fL
Mono (72 h, time 3 day): 2.2%
Neu (72 h, time 3 day): 17.2%
PT (72 h, time 3 day): 16.2 s
Plat (72 h, time 3 day): 123.8 x10_4/uL
RBC (72 h, time 3 day): 632.6 x10_4/ul
Ret (72 h, time 3 day): 6.8%
WBC (72 h, time 3 day): 92 x10_2/uL
KIDNEY_L (72 h, time 3 day): 0.9 g
KIDNEY_R (72 h, time 3 day): 0.9 g
KIDNEY_TOTAL (72 h, time 3 day): 1.8 g
LIVER (72 h, time 3 day): 9.6 g
A/G (72 h, time 3 day): 1.4
ALP (72 h, time 3 day): 1667 IU/L
ALT (72 h, time 3 day): 37.4 IU/L
AST (72 h, time 3 day): 73.8 IU/L
BUN (72 h, time 3 day): 17.2 mg/dL
CRE (72 h, time 3 day): 0.2 mg/dL
Ca (72 h, time 3 day): 10.6 mg/dL
Cl (72 h, time 3 day): 108.8 meq/L
DBIL (72 h, time 3 day): 0 mg/dL
GLC (72 h, time 3 day): 187.2 mg/dL
IP (72 h, time 3 day): 7.2 mg/dL
K (72 h, time 3 day): 4.3 meq/L
LDH (72 h, time 3 day): 266.6 IU/L
Na (72 h, time 3 day): 143.2 meq/L
PL (72 h, time 3 day): 146.2 mg/dL
RALB (72 h, time 3 day): 3.2 g/dL
TBIL (72 h, time 3 day): 0.002 mg/dL
TC (72 h, time 3 day): 77.2 mg/dL
TG (72 h, time 3 day): 102.2 mg/dL
TP (72 h, time 3 day): 5.6 g/dL
gamma-GTP (72 h, time 3 day): 1.2 IU/L
TERMINAL_BW ([…], time 7 day): 237.7 g
TERMINAL_BW ([…], time 14 day): 274.7 g
TERMINAL_BW ([…], time 28 day): 367.4 g
APTT ([…], time 7 day): 21.4 s
Bas ([…], time 7 day): 0%
Eos ([…], time 7 day): 0.8%
Fbg ([…], time 7 day): 315.6 mg/dL
Hb ([…], time 7 day): 13.4 g/dL
Ht ([…], time 7 day): 37.5%
Lym ([…], time 7 day): 83.6%
MCH ([…], time 7 day): 21.3 pg
MCHC ([…], time 7 day): 35.6%
MCV ([…], time 7 day): 59.7 fL
Mono ([…], time 7 day): 2.2%
Neu ([…], time 7 day): 12.6%
PT ([…], time 7 day): 15.4 s
Plat ([…], time 7 day): 114 x10_4/uL
RBC ([…], time 7 day): 628.6 x10_4/ul
Ret ([…], time 7 day): 5.1%
WBC ([…], time 7 day): 110.8 x10_2/uL
APTT ([…], time 14 day): 22.2 s
Bas ([…], time 14 day): 0%
Eos ([…], time 14 day): 1%
Fbg ([…], time 14 day): 289.4 mg/dL
Hb ([…], time 14 day): 13.8 g/dL
Ht ([…], time 14 day): 40%
Lym ([…], time 14 day): 81.6%
MCH ([…], time 14 day): 20.1 pg
MCHC ([…], time 14 day): 34.6%
MCV ([…], time 14 day): 58 fL
Mono ([…], time 14 day): 2.2%
Neu ([…], time 14 day): 14.8%
PT ([…], time 14 day): 15.7 s
Plat ([…], time 14 day): 118.3 x10_4/uL
RBC ([…], time 14 day): 690.8 x10_4/ul
Ret ([…], time 14 day): 4.7%
WBC ([…], time 14 day): 112.4 x10_2/uL
APTT ([…], time 28 day): 22.6 s
Bas ([…], time 28 day): 0%
Eos ([…], time 28 day): 1%
Fbg ([…], time 28 day): 317 mg/dL
Hb ([…], time 28 day): 13.7 g/dL
Ht ([…], time 28 day): 39%
Lym ([…], time 28 day): 78.8%
MCH ([…], time 28 day): 20 pg
MCHC ([…], time 28 day): 35.1%
MCV ([…], time 28 day): 56.8 fL
Mono ([…], time 28 day): 2%
Neu ([…], time 28 day): 17%
PT ([…], time 28 day): 15.8 s
Plat ([…], time 28 day): 111.4 x10_4/uL
RBC ([…], time 28 day): 687.6 x10_4/ul
Ret ([…], time 28 day): 4.7%
WBC ([…], time 28 day): 109.2 x10_2/uL
KIDNEY_L ([…], time 7 day): 1 g
KIDNEY_R ([…], time 7 day): 1 g
KIDNEY_TOTAL ([…], time 7 day): 2.1 g
KIDNEY_L ([…], time 14 day): 1.1 g
KIDNEY_R ([…], time 14 day): 1.1 g
KIDNEY_TOTAL ([…], time 14 day): 2.2 g
KIDNEY_L ([…], time 28 day): 1.3 g
KIDNEY_R ([…], time 28 day): 1.3 g
KIDNEY_TOTAL ([…], time 28 day): 2.6 g
LIVER ([…], time 7 day): 10.7 g
LIVER ([…], time 14 day): 11.9 g
LIVER ([…], time 28 day): 14.7 g
A/G ([…], time 7 day): 1.2
ALP ([…], time 7 day): 1548 IU/L
ALT ([…], time 7 day): 39.8 IU/L
AST ([…], time 7 day): 72.8 IU/L
BUN ([…], time 7 day): 18 mg/dL
CRE ([…], time 7 day): 0.2 mg/dL
Ca ([…], time 7 day): 10.6 mg/dL
Cl ([…], time 7 day): 107.6 meq/L
DBIL ([…], time 7 day): 0 mg/dL
GLC ([…], time 7 day): 189.4 mg/dL
IP ([…], time 7 day): 6.5 mg/dL
K ([…], time 7 day): 4.3 meq/L
LDH ([…], time 7 day): 234.6 IU/L
Na ([…], time 7 day): 141 meq/L
PL ([…], time 7 day): 153.2 mg/dL
RALB ([…], time 7 day): 3.1 g/dL
TBIL ([…], time 7 day): 0.002 mg/dL
TC ([…], time 7 day): 76.8 mg/dL
TG ([…], time 7 day): 125.8 mg/dL
TP ([…], time 7 day): 5.6 g/dL
gamma-GTP ([…], time 7 day): 1.4 IU/L
A/G ([…], time 14 day): 1.1
ALP ([…], time 14 day): 1195.8 IU/L
ALT ([…], time 14 day): 41 IU/L
AST ([…], time 14 day): 69 IU/L
BUN ([…], time 14 day): 18 mg/dL
CRE ([…], time 14 day): 0.2 mg/dL
Ca ([…], time 14 day): 10.5 mg/dL
Cl ([…], time 14 day): 107.4 meq/L
DBIL ([…], time 14 day): 0 mg/dL
GLC ([…], time 14 day): 180 mg/dL
IP ([…], time 14 day): 6.5 mg/dL
K ([…], time 14 day): 4.3 meq/L
LDH ([…], time 14 day): 160.8 IU/L
Na ([…], time 14 day): 141.2 meq/L
PL ([…], time 14 day): 161 mg/dL
RALB ([…], time 14 day): 3 g/dL
TBIL ([…], time 14 day): 0.004 mg/dL
TC ([…], time 14 day): 80.6 mg/dL
TG ([…], time 14 day): 148 mg/dL
TP ([…], time 14 day): 5.7 g/dL
gamma-GTP ([…], time 14 day): 2.2 IU/L
A/G ([…], time 28 day): 1.1
ALP ([…], time 28 day): 1033.6 IU/L
ALT ([…], time 28 day): 42.6 IU/L
AST ([…], time 28 day): 71.8 IU/L
BUN ([…], time 28 day): 18 mg/dL
CRE ([…], time 28 day): 0.2 mg/dL
Ca ([…], time 28 day): 10.6 mg/dL
Cl ([…], time 28 day): 106.6 meq/L
DBIL ([…], time 28 day): 0 mg/dL
GLC ([…], time 28 day): 191 mg/dL
IP ([…], time 28 day): 6.2 mg/dL
K ([…], time 28 day): 4.3 meq/L
LDH ([…], time 28 day): 167.4 IU/L
Na ([…], time 28 day): 142 meq/L
PL ([…], time 28 day): 151.6 mg/dL
RALB ([…], time 28 day): 3.2 g/dL
TBIL ([…], time 28 day): 0.02 mg/dL
TC ([…], time 28 day): 77.6 mg/dL
TG ([…], time 28 day): 135.6 mg/dL
TP ([…], time 28 day): 6 g/dL
gamma-GTP ([…], time 28 day): 2 IU/L
